Laboratory results published in patent US20230114728A1 (Venatorx Pharmaceuticals, Inc., priority 2019, published 2023).
Values after ≈ are worked out from the molar mass of the structure shown. Read-outs that look alike come from different tables or passages of the source.

Experiments:
Format in all cases: cell-based
E. coli AG100 = test: Broth microdilution MIC in CAMHB; details: Escherichia coli
How it was run: (§1)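 Colonies from cation-adjusted Mueller Hinton agar are grown in broth (3-5 h, 37° C), adjusted by OD600, and added at 2-8×10^5 CFU/mL to 2-fold compound dilutions. After 16-20 h at 37° C, the lowest concentration without growth is taken as MIC.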

E. coli D22 = test: Broth microdilution MIC in CAMHB; details: Escherichia coli
How it was run: as §1

E. coli AG100A = test: Broth microdilution MIC in CAMHB; details: Escherichia coli, read-out: Minimum Inhibitory Concentration, E. coli AG100A
How it was run: as §1

E. coli ATCC 25922 = test: Broth microdilution MIC in CAMHB; details: Escherichia coli
How it was run: as §1

A. baumannii ATCC 19606 = test: Broth microdilution MIC in CAMHB; details: Acinetobacter baumannii
How it was run: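 Per CLSI broth microdilution, colonies were grown 3-5 h at 37° C in cation-adjusted Mueller Hinton broth, then diluted to a starting inoculum of 2-8×10^5 CFU/mL against 2-fold serial compound dilutions. Plates were incubated 16-20 h at 37° C, and MIC was read visually as the lowest concentration with no growth.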

N. gonorrhoeae FA1090 = test: Liquid broth MIC in Fastidious broth; details: Neisseria gonorrhoeae
How it was run: (§2)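 Colonies were swabbed from chocolate agar after 24 h growth and standardised by optical density at 600 nm. Compounds were serially diluted twofold in Fastidious broth, and bacteria added to give 5×10^5 CFU/mL. After about 24 h at 36 °C in 5% CO2, the lowest concentration allowing under 10% growth was taken as MIC.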

N. gonorrhoeae WHO G = test: Liquid broth MIC in Fastidious broth; details: Neisseria gonorrhoeae, read-out: Minimum Inhibitory Concentration, N. gonorrhoeae WHO G
How it was run: as §2

N. gonorrhoeae WHO K = test: Liquid broth MIC in Fastidious broth; details: Neisseria gonorrhoeae, read-out: Minimum Inhibitory Concentration, N. gonorrhoeae WHO K
How it was run: (§3)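 Mosaic-PBP2 strains grown 24 h on chocolate agar (36 °C, 5% CO2), then direct-suspended in saline and OD600-adjusted. Twofold compound dilutions in Fastidious broth inoculated at 5×10^5 CFU/mL and incubated ~24 h at 36 °C, 5% CO2. MIC read visually as lowest concentration with <10% growth versus full-growth wells.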

N. gonorrhoeae WHO L = test: Liquid broth MIC in Fastidious broth; details: Neisseria gonorrhoeae, read-out: Minimum Inhibitory Concentration, N. gonorrhoeae WHO L
How it was run: as §2

[1] = tested on: N. gonorrhoeae ATCC 49226; test: Liquid broth MIC in Fastidious broth; details: Neisseria gonorrhoeae
How it was run: as §2

N. gonorrhoeae H041 = test: Liquid broth MIC in Fastidious broth; details: Neisseria gonorrhoeae, H041, read-out: Minimum Inhibitory Concentration, N. gonorrhoeae H041
How it was run: as §3

[2] = E. coli AG100 (wild-type parent), MHB, read-out: Minimum Inhibitory Concentration, E. coli AG100
[3] = E. coli D22 (hyper-permeable), MHB, read-out: Minimum Inhibitory Concentration, E. coli D22
[4] = ATCC25922, E. coli ATCC 25922, MHB, read-out: Minimum Inhibitory Concentration, E. coli 25922
[5] = ATCC19606, MHB, read-out: Minimum Inhibitory Concentration, A. baumannii ATCC 19606
[6] = N. gonorrhoeae strain FA1090, Fastidious broth, read-out: Minimum Inhibitory Concentration, N. gonorrhoeae FA1090
[7] = N. gonorrhoeae strain WHO G, Fastidious broth
[8] = N. gonorrhoeae strain WHO L, Fastidious broth
[9] = ATCC49226, N. gonorrhoeae strain ATCC 49226, Fastidious broth, read-out: Minimum Inhibitory Concentration, N. gonorrhoeae ATCC 49226

Compound | MIC (E. coli AG100; [2]) [mg/L] | MIC (E. coli D22; [3]) [mg/L] | MIC (E. coli AG100A) [mg/L] | MIC (E. coli ATCC 25922; [4]) [mg/L] | MIC (A. baumannii ATCC 19606; [5]) [mg/L] | MIC (N. gonorrhoeae FA1090; [6]) [mg/L] | MIC (N. gonorrhoeae WHO G; [7]) [mg/L] | MIC (N. gonorrhoeae WHO K) [mg/L] | MIC (N. gonorrhoeae WHO L; [8]) [mg/L] | MIC [1, 9] [mg/L] | MIC (N. gonorrhoeae H041) [mg/L] | MIC (E. coli AG100; AG100, read-out: Minimum Inhibitory Concentration, E. coli AG100) [mg/L] | MIC (E. coli D22; D22, read-out: Minimum Inhibitory Concentration, E. coli D22) [mg/L] | MIC (E. coli ATCC 25922; ATCC25922, read-out: Minimum Inhibitory Concentration, E. coli 25922) [mg/L] | MIC (A. baumannii ATCC 19606; ATCC19606, read-out: Minimum Inhibitory Concentration, A. baumannii ATCC 19606) [mg/L] | MIC (N. gonorrhoeae FA1090; FA1090, read-out: Minimum Inhibitory Concentration, N. gonorrhoeae FA1090) [mg/L] | MIC (N. gonorrhoeae WHO G) [mg/L] | MIC (N. gonorrhoeae WHO L) [mg/L] | MIC ([1]; ATCC49226, read-out: Minimum Inhibitory Concentration, N. gonorrhoeae ATCC 49226) [mg/L]
CCN1CCN(C(=O)NC(C(=O)N[C@H]2Cc3cccc(C(=O)O)c3OB2O)c2ccc(O)c(N)c2)C(=O)C1=O (stereo partly drawn) [Example 29, (3R)-3-(2-(3-amino-4-hydroxyphenyl)-2-(4-ethyl-2,3-dioxopiperazine-1-carboxamido)acetamido)-2-hydroxy-3,4-dihydro-2H-benzo[e][1,2]oxaborinine-8-carboxylic acid] | 32 to 64 (≈ 59.3 to 119 µM) | 2 to 4 (≈ 3.71 to 7.42 µM) | 2 to 4 (≈ 3.71 to 7.42 µM) | 32 to 64 (≈ 59.3 to 119 µM) | > 128 | 4 to 8 (≈ 7.42 to 14.8 µM) | 16 to 32 (≈ 29.7 to 59.3 µM) | > 64 | > 64 | > 64 | > 64 | – | – | – | – | – | – | – | –
CCN1CCN(C(=O)NC(C(=O)N[C@H]2Cc3cccc(C(=O)O)c3OB2O)c2ccc(O)c(NS(N)(=O)=O)c2)C(=O)C1=O (stereo partly drawn) [Example 30, (3R)-3-(2-(4-ethyl-2,3-dioxopiperazine-1-carboxamido)-2-(4-hydroxy-3-(sulfamoylamino)phenyl)acetamido)-2-hydroxy-3,4-dihydro-2H-benzo[e][1,2]oxaborinine-8-carboxylic acid] | 32 to 64 (≈ 51.7 to 103 µM) | 2 to 4 (≈ 3.23 to 6.47 µM) | 2 to 4 (≈ 3.23 to 6.47 µM) | 8 to 16 (≈ 12.9 to 25.9 µM) | > 128 | 1 to 2 (≈ 1.62 to 3.23 µM) | 16 to 32 (≈ 25.9 to 51.7 µM) | > 64 | > 64 | > 64 | > 64 | – | – | – | – | – | – | – | –
CCN1CCN(C(=O)NC(C(=O)N[C@H]2Cc3cccc(C(=O)O)c3OB2O)c2ccc(C(=O)O)c(F)c2)C(=O)C1=O (stereo partly drawn) [Example 31, (3R)-3-(2-(4-carboxy-3-fluorophenyl)-2-(4-ethyl-2,3-dioxopiperazine-1-carboxamido)acetamido)-2-hydroxy-3,4-dihydro-2H-benzo[e][1,2]oxaborinine-8-carboxylic acid] | 32 to 64 (≈ 56.1 to 112 µM) | 2 to 4 (≈ 3.51 to 7.01 µM) | 2 to 4 (≈ 3.51 to 7.01 µM) | 32 to 64 (≈ 56.1 to 112 µM) | > 128 | < 0.125 | 1 to 2 (≈ 1.75 to 3.51 µM) | 4 to 8 (≈ 7.01 to 14 µM) | 4 to 8 (≈ 7.01 to 14 µM) | 1 to 2 (≈ 1.75 to 3.51 µM) | 4 to 8 (≈ 7.01 to 14 µM) | – | – | – | – | – | – | – | –
N[C@@H](C(=O)N[C@H]1Cc2ccc(F)c(C(=O)O)c2OB1O)c1ccc(OS(=O)(=O)F)cc1 [Example 32, (R)-3-((R)-2-amino-2-(4-((fluorosulfonyl)oxy)phenyl)acetamido)-7-fluoro-2-hydroxy-3,4-dihydro-2H-benzo[e][1,2]oxaborinine-8-carboxylic acid] | – | – | > 128 | – | – | – | – | > 64 | – | – | > 64 | > 128 | > 128 | > 128 | > 128 | > 64 | > 64 | > 64 | > 64
NCCCN1CCN(C(=O)NC(C(=O)N[C@H]2Cc3cccc(C(=O)O)c3OB2O)c2ccc(C(=O)O)cc2)C(=O)C1=O (stereo partly drawn) [Example 39, (3R)-3-(2-(4-(3-aminopropyl)-2,3-dioxopiperazine-1-carboxamido)-2-(4-carboxyphenyl)acetamido)-2-hydroxy-3,4-dihydro-2H-benzo[e][1,2]oxaborinine-8-carboxylic acid] | 8 to 16 (≈ 13.8 to 27.5 µM) | 2 to 4 (≈ 3.44 to 6.88 µM) | 8 to 16 (≈ 13.8 to 27.5 µM) | 8 to 16 (≈ 13.8 to 27.5 µM) | > 128 | 1 to 2 (≈ 1.72 to 3.44 µM) | 4 to 8 (≈ 6.88 to 13.8 µM) | > 64 | 16 to 32 (≈ 27.5 to 55 µM) | 4 to 8 (≈ 6.88 to 13.8 µM) | > 64 | – | – | – | – | – | – | – | –
NS(=O)(=O)NC(C(=O)N[C@H]1Cc2ccc(F)c(C(=O)O)c2OB1O)c1ncc(O)cc1F (stereo partly drawn) [Example 43, (3R)-7-fluoro-3-(2-(3-fluoro-5-hydroxypyridin-2-yl)-2-(sulfamoylamino)acetamido)-2-hydroxy-3,4-dihydro-2H-benzo[e][1,2]oxaborinine-8-carboxylic acid] | > 128 | > 128 | > 128 | > 128 | > 128 | > 64 | > 64 | > 64 | > 64 | > 64 | > 64 | – | – | – | – | – | – | – | –
